From US20030229137A1, “Methods of inhibiting osteoclast activity” (priority 2001, published 2003)

What was measured:
[1] = test system: osteoclast formation from PBMC; assay: in vitro osteoclast formation assay (RANKL/M-CSF, MTS/TRAP); assay type: cell-based; settings: for IC50: Osteoclast, read-out: IC50 (osteoclast formation inhibition); for suppression of osteoclast formation under the test conditions (in words): Table 1 experiments
Procedure: Each of the kavalactones isolated in Example 1 was studied in an in vitro osteoclast formation assay. The protocol used (essentially that described in T. Yoneda et al., Endocrinology, 129(2):683-689 (1991) and H. Zhou et al., J Biol. Chem., 272, 14926 (2001)) is as follows:
(A) Osteoclast Formation Culture
1) Prepare assay wells (n=4) for each dilution of a test compound in a 384-plate. Each well contains 25 μl of 2× conc. of the compound in 10% FBS-media/0.5% DMSO.
2) Suspend PBMC in 10% FBS-media supplemented with 40 ng/ml of RANKL and 20 ng/ml of human M-CSF at 1.5 M cells/ml.
3) Vortex cell suspension and filtrate through mesh filter to remove cell aggregates.
4) Inoculate 25 μl of cell suspension to each well.
5) Centrifuge the assay plate at 1500 rpm (˜700 g) for 1 min.
6) Start osteoclast formation culture in a 5% CO2-incubator.
7) After 48 h of the culture, replenish 10 μl of 10% FBS-media supplemented with 120 ng/ml of RANKL and 60 ng/ml of M-CSF. Continue the culture until multiple osteoclasts are visible in control wells (up to 4˜5 days).
1) Add 6 μl of MTS reagent to each well and further incubate 1˜2 hrs.
2) Measure absorbance at 490 nm.
3) Discard MTS/culture media and fix cells in 60% acetone/0.38 M citrate buffer, pH 5.4 for 30 sec. Rinse cells with MQ once and air-dried.
4) Incubate each well in 25 μl of 5 mM p-nitrophenyl phosphate/tartrate/acetic acid solution for 2˜3 hrs (divert buffers from acid phosphate, leukocyte kit from Sigma #386-A).
5) Measure absorbance at 405 nm.
6) Discard p-nitrophenyl phosphate solution, rinse wells with MQ and stain cells with the acid phosphate, leukocyte kit.
7) Count multinucleate (>3) TRAP#-positive cell number under microscope. # Tartarate Resistant Acid Phosphatase

[2] = test system: AA-stimulated aggregation in human platelets; settings: applied five minutes before AA; cited from earlier work
[3] = test system: ATP release in human platelets; settings: applied five minutes before AA; cited from earlier work
[4] = test system: synthesis of PGE2 in human platelets; settings: applied five minutes before AA; cited from earlier work
[5] = test system: synthesis of TXA2 in human platelets; settings: applied five minutes before AA; cited from earlier work
[6] = protocol of Example 2, PBMC with RANKL and M-CSF

Compound: COc1cc(/C=C/c2ccccc2)oc(=O)c1 [desmethoxyyangonin]
- IC50 [1, 6]: 32 µM

Compound: COC1=CC(=O)O[C@@H](/C=C/c2ccc3c(c2)OCO3)C1 [methysticin]
- relative osteoclast formation inhibitory activity among the six kavalactones [1]: relatively higher osteoclast formation inhibitory activity
- IC50 [1, 6]: 13 µM
- inhibition of osteoclasts ([1]; at 15 μM): almost complete inhibition

Compound: COC1=CC(=O)O[C@@H](CCc2ccc3c(c2)OCO3)C1 [dihydromethysticin]
- IC50 [1, 6]: 13 µM

Compound: COC1=CC(=O)O[C@@H](CCc2ccccc2)C1 [dihydrokawain]
- relative osteoclast formation inhibitory activity among the six kavalactones [1]: relatively higher osteoclast formation inhibitory activity
- IC50 [1, 6]: 10 µM
- inhibition of osteoclasts ([1]; at 15 μM): almost complete inhibition

Compound: CC/C(=C(\c1ccccc1)c1ccc(OCCN(C)C)cc1)c1ccccc1 [tamoxifen, reference compound]
- suppression of osteoclast formation under the test conditions (in words) [1]: showed consistent activity

Compound: C=CC[C@@H]1/C=C(\C)C[C@H](C)C[C@H](OC)[C@H]2O[C@@](O)(C(=O)C(=O)N3CCCC[C@H]3C(=O)O[C@H](/C(C)=C/[C@@H]3CC[C@@H](O)[C@H](OC)C3)[C@H](C)[C@@H](O)CC1=O)[C@H](C)C[C@@H]2OC [FK506, reference compound]
- IC50 [1, 6]: > 25 µg/mL

Compound: Cc1ccc(-c2cc(C(F)(F)F)nn2-c2ccc(S(N)(=O)=O)cc2)cc1 [celecoxib, reference compound]
- IC50 [1, 6]: > 100 µM

Compound: COc1ccc(/C=C/c2cc(OC)cc(=O)o2)cc1 [yangonin]
- relative osteoclast formation inhibitory activity among the six kavalactones [1]: relatively higher osteoclast formation inhibitory activity
- IC50 [1, 6]: 8 µM
- inhibition of osteoclasts ([1]; at 10 μM): almost complete inhibition

Compound: COC1=CC(=O)O[C@@H](/C=C/c2ccccc2)C1 [kawain]
- IC50 [1, 6]: 28 µM

Compound: IL-4: endogeneous osteoclast formation inhibitor, control compound
- suppression of osteoclast formation under the test conditions (in words) [1]: showed consistent activity
- IC50 (osteoclast formation inhibition) [1, 6]: <0.001 µg/mL

Compound: COC1=CC(=O)O[C@@H](/C=C/c2ccccc2)C1 [(+)-kawain]
- IC50 [2]: 78 µM
- IC50 [3]: 115 µM
- IC50 [4]: 86 µM
- IC50 [5]: 71 µM

Compound: CC(=O)Oc1ccccc1C(=O)O [aspirin, reference compound]
- IC50 [1, 6]: > 100 µM
- suppression of osteoclast formation under the test conditions (in words) [1]: do not suppress osteoclast formation
- inhibition of osteoclasts ([1]; at 25 μM): no inhibition
